The values that follow come from US20220289685A1, “ANTIMALARIAL HEXAHYDROPYRIMIDINE ANALOGUES” (UCB BIOPHARMA SRL, priority 2019, published 2022).

Each structure is given as a SMILES string. Counter-ions that a name gives are not always drawn.

The subject of the first test is Plasmodium falciparum 3D7 strain. Nature of the test: P. falciparum 3D7 asexual blood stage assay (SYBR green readout). Format: cell-based. The following applies: Plasmodium falciparum, 3D7, Erythrocyte, 72 h. The protocol:
Asexual Blood Stage Assay
The assay used to measure the effect of test compounds on a bloodstream stage of Plasmodium falciparum: 3D7 strain employs SYBR green as the readout. This is a dye that binds to double stranded deoxyribonucleic acid (DNA) with a resulting increase in fluorescence, allowing detection of P. falciparum DNA in infected erythrocytes, and thereby providing a measure of parasite growth and propagation.
P. falciparum Culture Maintenance
Erythrocytes (A+ blood) were prepared for both parasite culture and assay by washing 4 times with incomplete media (15.9 g RPMI 1640 (25 mM HEPES, L-glutamine), 1 g NaHCO3, 2 g glucose, 400 μL gentacin (500 mg/mL), 2 mL hypoxanthine solution (13.6 g/L in 0.1M NaOH pH 7.3) in 1 litre of media). The cells were centrifuged at 1800 g for 5 minutes, before decanting the supernatant and re-suspending in fresh incomplete media. On the final wash, the cells were re-suspended in complete media (incomplete media with 5 g/L AlbumaxII), and centrifuged at 1800 g for 3 minutes. This cell sediment was treated as 100% haematocrit.
P. falciparum 3D7 was cultured in erythrocytes at 5% haematocrit in complete media at 37° C. (1% O2, 3% CO2, balance N2). Cultures were split on a weekly basis to achieve a 1% parasitaemia in erythrocites at 5% haematocrit in fresh media. Culture media is replaced by fresh media every other day (2 times during the week).
On day 1, test compounds were added to assay plates using Echo dispensing technology ([…] and 20 points titration). 50 nL of each compound dilution was added to 50 μL of culture (5% haematocrit, 0.5% parasitaemia) and incubated for 72 h at 37° C. (1% O2, 3% CO2, balance N2). Final concentrations of test compounds ranged from 50,000 nM to 15 nM, in […].
On day 4, 10 μL SYBR green (Invitrogen S7563 supplied as 10,000× concentrate in DMSO) pre-diluted to 3× concentrate with Lysis buffer (20 mM Tris pH 7.9, 5% EDTA, 0.16% w/v, 1.6% TX100 v/v) was added to the cultures and incubated in the dark, overnight, at room temperature.
On day 5, fluorescent signal was measured using a BioTek plate reader (excitation 485 nm, emission 528 nm). All data were processed using IDBS ActivityBase. Raw data were converted into percent inhibition through linear regression by setting the high inhibition control (mefloquine) as 100% and the no inhibition control (DMSO) as 0%. Quality control criteria for passing plates were as follows: Z′>0.5, S:B>3, 30% CV(no inhibition control)<15. The formula used to calculate Z′ is: […]
All EC50 curve fitting was undertaken using the following bi-phasic two site dose response using XLfit model 300 (IDBS):
where A=100 minus the top of the upper curve 1 and the bottom of lower curve; B=Hill slope; log(C)=IC50 concentration at lower site; log(D)=IC50 concentration at upper site; x=inhibitor concentration; and y=% inhibition.
In the case of `C[C@@H]1C[C@H](N2C(=N)N[C@](C)(c3cccc(NC(=O)c4cccc(C(F)(F)F)c4)c3Cl)CC2=O)CCO1` (relative stereo) [Example 41, N-(2-Chloro-3-{(4S)-2-imino-4-methyl-1-[(2R*,4R*)-2-methyl-tetrahydropyran-4-yl]-6-oxo-hexahydropyrimidin-4-yl}phenyl)-3-(trifluoromethyl)benzamide trifluoroacetic acid salt], 0.015 µM corresponded to half-maximal inhibition (IC50).
Still for that read-out and setting: the result for `C[C@@H]1C[C@H](N2C(=N)N[C@](C)(c3cccc(NC(=O)c4cc(F)cc(F)c4)c3Cl)CC2=O)CCO1` (relative stereo) [Example 42, N-(2-Chloro-3-{(4S)-2-imino-4-methyl-1-[(2R*,4R*)-2-methyl-tetrahydropyran-4-yl]-6-oxo-hexahydropyrimidin-4-yl]phenyl)-3,5-difluorobenzamide trifluoroacetic acid salt] reads 0.042 µM; that for `C[C@@H]1C[C@H](N2C(=N)N[C@](C)(c3cccc(NC(=O)c4cnc5ccncc5c4)c3Cl)CC2=O)CCO1` (relative stereo) [Example 43, N-(2-Chloro-3-{(4S)-2-imino-4-methyl-1-[(2R*,4R*)-2-methyl-tetrahydropyran-4-yl]-6-oxo-hexahydropyrimidin-4-yl]phenyl)-1,6-naphthyridine-3-carboxamide trifluoroacetic acid salt], 0.092 µM.
The same measure, in the same setting: the value for `C[C@@H]1C[C@H](N2C(=N)N[C@](C)(c3cccc(NC(=O)c4cc5cccc(F)c5o4)c3Cl)CC2=O)CCO1` (relative stereo) [Example 44, N-(2-Chloro-3-{(4S)-2-imino-4-methyl-1-[(2R*,4R*)-2-methyl-tetrahydropyran-4-yl]-6-oxo-hexahydropyrimidin-4-yl]phenyl)-7-fluorobenzofuran-2-carboxamide trifluoroacetic acid salt] was 0.02 µM; that for `COc1ccncc1C(=O)Nc1cccc([C@]2(C)CC(=O)N([C@@H]3CCO[C@H](C)C3)C(=N)N2)c1Cl` (relative stereo) [Example 45, N-(2-Chloro-3-{(4S)-2-imino-4-methyl-1-[(2R*,4R*)-2-methyl-tetrahydropyran-4-yl]-6-oxo-hexahydropyrimidin-4-yl]phenyl)-4-methoxypyridine-3-carboxamide trifluoroacetic acid salt] was 0.156 µM.
On the same count and under the same terms, the value for `C[C@@H]1C[C@H](N2C(=N)N[C@](C)(c3cccc(NC(=O)c4cc5ccccc5nn4)c3Cl)CC2=O)CCO1` (relative stereo) [Example 46, N-(2-Chloro-3-{(4S)-2-imino-4-methyl-1-[(2R*,4R*)-2-methyl-tetrahydropyran-4-yl]-6-oxo-hexahydropyrimidin-4-yl]phenyl)-cinnoline-3-carboxamide trifluoroacetic acid salt] was 0.041 µM; that for `C[C@@H]1C[C@H](N2C(=N)N[C@](C)(c3cccc(NC(=O)c4ccc(OC(F)(F)F)cn4)c3Cl)CC2=O)CCO1` (relative stereo) [Example 47, N-(2-Chloro-3-{(4S)-2-imino-4-methyl-1-[(2R*,4R*)-2-methyl-tetrahydropyran-4-yl]-6-oxo-hexahydropyrimidin-4-yl]phenyl)-5-(trifluoromethoxy)pyridine-2-carboxamide trifluoroacetic acid salt] was 0.242 µM; that for `C[C@@H]1C[C@H](N2C(=N)N[C@](C)(c3cccc(NC(=O)c4ncccc4C(F)(F)F)c3Cl)CC2=O)CCO1` (relative stereo) [Example 49, N-(2-Chloro-3-{(4S)-2-imino-4-methyl-1-[(2R*,4R*)-2-methyl-tetrahydropyran-4-yl]-6-oxo-hexahydropyrimidin-4-yl]phenyl)-3-(trifluoromethyl)pyridine-2-carboxamide trifluoroacetic acid salt] was 0.017 µM.
Regarding `COc1cccnc1C(=O)Nc1cccc([C@]2(C)CC(=O)N([C@@H]3CCO[C@H](C)C3)C(=N)N2)c1Cl` (relative stereo) [Example 50, N-(2-Chloro-3-{(4S)-2-imino-4-methyl-1-[(2R*,4R*)-2-methyl-tetrahydropyran-4-yl]-6-oxo-hexahydropyrimidin-4-yl}phenyl)-3-methoxypyridine-2-carboxamide trifluoroacetic acid salt], 0.056 µM corresponded to half-maximal inhibition (IC50).
Still for that read-out and setting: the value for `C[C@@H]1C[C@H](N2C(=N)N[C@](C)(c3cccc(NC(=O)c4ccnn4C)c3Cl)CC2=O)CCO1` (relative stereo) [Example 51, N-(2-Chloro-3-{(4S)-2-imino-4-methyl-1-[(2R*,4R*)-2-methyl-tetrahydropyran-4-yl]-6-oxo-hexahydropyrimidin-4-yl}phenyl)-2-methylpyrazole-3-carboxamide trifluoroacetic acid salt] was 0.059 µM; that for `C[C@@H]1C[C@H](N2C(=N)N[C@](C)(c3cccc(NC(=O)c4cnc5cccnc5c4)c3Cl)CC2=O)CCO1` (relative stereo) [Example 52, N-(2-Chloro-3-{(4S)-2-imino-4-methyl-1-[(2R*,4R*)-2-methyl-tetrahydropyran-4-yl]-6-oxo-hexahydropyrimidin-4-yl}phenyl)-1,5-naphthyridine-3-carboxamide trifluoroacetic acid salt] was 0.115 µM.
Still for that read-out and setting: the value for `C[C@@H]1C[C@H](N2C(=N)N[C@](C)(c3cccc(NC(=O)c4ccc(C5CC5)nc4)c3Cl)CC2=O)CCO1` (relative stereo) [Example 53, N-(2-Chloro-3-{(4S)-2-imino-4-methyl-1-[(2R*,4R*)-2-methyl-tetrahydropyran-4-yl]-6-oxo-hexahydropyrimidin-4-yl}phenyl)-6-cyclopropylpyridine-3-carboxamide hydrochloride] was 0.63 µM; that for `Cc1ccc(C(=O)Nc2cccc([C@]3(C)CC(=O)N([C@@H]4CCO[C@H](C)C4)C(=N)N3)c2Cl)nn1` (relative stereo) [Example 54, N-(2-Chloro-3-{(4S)-2-imino-4-methyl-1-[(2R*,4R*)-2-methyl-tetrahydropyran-4-yl]-6-oxo-hexahydropyrimidin-4-yl}phenyl)-6-methylpyridazine-3-carboxamide hydrochloride] was 0.17 µM.
Still for that read-out and setting: the result for `C[C@@H]1C[C@H](N2C(=N)N[C@](C)(c3cccc(NC(=O)c4cc(C(F)(F)F)cnn4)c3Cl)CC2=O)CCO1` (relative stereo) [Example 55, N-(2-Chloro-3-{(4S)-2-imino-4-methyl-1-[(2R*,4R*)-2-methyl-tetrahydropyran-4-yl]-6-oxo-hexahydropyrimidin-4-yl}phenyl)-5-(trifluoromethyl)pyridazine-3-carboxamide hydrochloride] reads 0.053 µM; that for `C[C@@H]1C[C@H](N2C(=N)N[C@](C)(c3cccc(NC(=O)c4cnccc4C(F)(F)F)c3Cl)CC2=O)CCO1` (relative stereo) [Example 56, N-(2-Chloro-3-{(4S)-2-imino-4-methyl-1-[(2R*,4R*)-2-methyl-tetrahydropyran-4-yl]-6-oxo-hexahydropyrimidin-4-yl}phenyl)-4-(trifluoromethyl)pyridine-3-carboxamide hydrochloride], 0.021 µM.

Still in this test, the particulars now being: Plasmodium falciparum, Erythrocyte; P. falciparum 3D7 in human erythrocytes, 72 h incubation, SYBR green fluorescence; read-out: IC50.
Consider `C[C@@H]1C[C@H](N2C(=N)N[C@](C)(c3cccc(NC(=O)c4nccn5ccnc45)c3Cl)CC2=O)CCO1` (relative stereo) [Example 48, N-(2-Chloro-3-{(4S)-2-imino-4-methyl-1-[(2R*,4R*)-2-methyl-tetrahydropyran-4-yl]-6-oxo-hexahydropyrimidin-4-yl}phenyl)-imidazo[1,2-alpyrazine-8-carboxamidetrifluoroacetic acid salt], for which the 50% inhibitory concentration (IC50) (in general, the point on the concentration scale where inhibition reaches its midpoint) stood at 0.055 µM.
